“Also recorded” adds a separate entry of the source.
What was measured:
[1] = system: Beas-2B cells; assay: Resazurin cell survival assay, metal-induced chemoresistance and chelators; format: cell-based; settings: for Reversal of metal-induced chemoresistance to doxorubicin, non-saturating chelator dose: DMPS 40 μM, EDTA 20 μM, FIG. 5
Experimental: (§1) Resazurin cell survival assays were used to determine cell survival upon chemotherapeutic and chelator challenge. 2×10^3 cells were seeded in 100 μl in 96 well plates. 24 hrs later medium was replaced with 90 μl of metal mixtures or control medium for another 24 hrs. Next a combination of chelators and chemotherapy as indicated in the figures was prepared and added as an additional 10 μl to the cells. Cells were then incubated for 72 hr (Beas-2B) or 96 hr (A549 and MCF7). A stock solution of resazurin (Sigma) was made as 880 μM in PBS adjusted to pH 7.8/filtered 0.2 μm and kept for 6 months at 4° C. Medium was replaced with 75 μl of resazurin solution (final concentration 44 μM). Cells were incubated at 37° C. for 3-4 hrs and fluorescence emission was measured at 583 nm with excitation at 555 nm using a spectrophotometer (Beckman). To test the effects of metals on doxorubicin directly, doxorubicin was incubated with metals in solution 24 hrs as a 10× solution, prior to adding to cells, whereas control cells were incubated in metals as described before.
IC50 values were calculated using Graphpad Prism. Error bars represent standard deviation of triplicate measurements.

[2] = system: A549 lung cancer cells; assay: as above; format: cell-based; set-up: dose or concentration left out as unconfirmed; settings: FIG. 3C
Experimental: as §1

[3] = system: MCF7 breast cancer cells; assay: as above; format: cell-based; set-up: dose or concentration left out as unconfirmed; settings: FIG. 3B
Experimental: as §1

[4] = system: A549 p53 KO cells; assay: Resazurin cell survival assay in p53 KO clone; format: cell-based; settings: p53 KO clone of A549; DMPS (150 μM); doxorubicin; FIG. 3D
Experimental: A549, MCF7 and Beas-2B cells were obtained from ATCC (https://www.atcc.org). Cells were maintained in DMEM high Glucose (Invitrogen) and 10% FCS (Gibco) at 37° C. and 5% CO2. A549 p53 KO cells were generated using a CRISPR p53 KO construct (pLV-U6g-EPCG with target sequence TCCATTGCTTGG GACGGCAAGG, Sigma). Cell lines were selected for GFP expression using FACS sorting followed by clonal selection in neomycin (600 ng/ml, Sigma).
as §1, with “To test the effects of metals on doxorubicin directly, doxorubicin was incubated with metals in solution 24 hrs as a 10× solution, prior to adding to cells, whereas control cells were incubated in metals as described before.” left out

[5] = system: H2170 cells; assay: Cell survival assay, metal exposure and chelation treatment; format: cell-based; settings: H2170 pre-treated with metals 1:128, then DMPS and doxorubicin for 72 hrs; FIG. 16
Experimental: as §1
Overall, the methods disclosed in the first example were used in the second example as well. […]
(§2) Hep3B and H2177 cells were obtained from ATCC and were maintained in DMEM high Glucose (Invitrogen) and 10% FCS (Gibco) at 37° C. and 5% CO2. […] Cells were subsequently counted and added to 96 well plates for survival assays as previously described. […]

[6] = system: p53; assay: p53 folding status in cells (immunoprecipitation with folding antibodies / western blot); format: cell-based; settings: Beas-2B cells incubated with metals in presence or absence of chelator; FIG. 20, 21
Experimental: (§3) Cells were seeded in 6 well plates at 30% cell density. 24 hrs later, medium was replaced with the metal mixtures as indicated. Cells were incubated for 24 hrs and lysed with 100 μl NP-40 lysis buffer (100 mM NaCl 100 mM Tris pH8, 1% NP-40) for 15 min on ice. Cell pellets were discarded in centrifugation (10 min max) and 10% of input was taken for western blot and mixed with 4×SB. The remaining lysate was subjected to immunoprecipitation with p53 Ab240 Ab (1 ul per condition) using 30 μl NP-40 buffer washed goat-anti-mouse magnetic Dynabeads (Thermo Fisher). Lysates and beads were tumbled at 4° C. for 2 hrs and washed 3× with NO-40 buffer. Beads were taken up in 2×SB and together with inputs denatured at 95° C. in a heat block. 8% SDS page gels were used to run all of the samples on western blot. Gels were transferred on nitrocellulose membrane, blocked with milk (TBS-Tween) for 1 hr tumbling and incubated in p53 DO-1 (Santa Cruz Ab, 1:2000) ON at 4° C. The membrane was washed 3× with TBS-tween and secondary Ab (anti-mouse 700, Li-Cor) was used 1:10.000 to incubate the blot for 1 hr at room temperature. The blot was washed with TBS-tween 3× and the signal was measured in a Li-Cor Odyssey. Quantification was measured in the software of Li-Cor and plotted corrected for input levels of each sample.

[7] = system: BxPC-3 cells; assay: Cell survival assay, metal exposure and chelation treatment; format: cell-based; settings: BxPC3 pre-treated with metals 1:128; for Reversal of metal-induced chemoresistance to 5-FU: 150 μM chelator and 5-FU for 72 hrs, FIG. 17; for Effect of chelator on resistance/survival with nab-paclitaxel: 150 μM chelator and nab-paclitaxel for 72 hrs, FIG. 18
Experimental: as §1
Overall, the methods disclosed in the first example were used in the second example as well.

[8] = system: p53; format: biochemical; settings: Beas-2B lysates with metals 30 min, then chelator 1 hr; naïve and loaded lysates; FIG. 23
[9] = system: 158 mutant p53; assay: p53 folding in transfected Hep3B cells; format: cell-based; settings: Hep3B transfected with 158 mutant p53; metals followed by miaDMSA; FIG. 22
Experimental: as §3, with “The membrane was washed 3× with TBS-tween and secondary Ab (anti-mouse 700, Li-Cor) was used 1:10.000 to incubate the blot for 1 hr at room temperature.” left out
as §2

[10] = system: WT p53; assay: p53 folding in transfected Hep3B cells; format: cell-based; settings: Hep3B transfected with WT p53; metals followed by miaDMSA; FIG. 22
Experimental: as §3, with “The membrane was washed 3× with TBS-tween and secondary Ab (anti-mouse 700, Li-Cor) was used 1:10.000 to incubate the blot for 1 hr at room temperature.” left out
as §2

[11] = metal-loaded Beas-2B, DMPS 150 μM, EDTA 75 μM (equivalent chelation capacity), alone or combined, FIG. 4
[12] = Beas-2B pre-treated with metals 1:128, then chelator and doxorubicin for 72 hrs, FIG. 14, 15

SMILES | Reversal of metal-induced chemoresistance to doxorubicin, non-saturating chelator dose ([1]; alone or combined) | Reversal of metal-induced chemoresistance to doxorubicin [1, 11] | Prevention of metal-induced unfolding of p53 [6] | Reversal of metal-induced chemoresistance to doxorubicin [1, 12] | Reversal of metal-induced chemoresistance to 5-FU [7] | Effect of chelator on resistance/survival with nab-paclitaxel [7] | Refolding of unfolded p53 [8] | other results
O=S(=O)(O)CC(S)CS (centres unmarked) [DMPS, 2,3-dimercapto-1-propanesulfonic acid] | not able to restore chemosensitivity substantially | almost completely restored; also recorded: reversed chemoresistance completely | prevents unfolding | – | – | – | – | Restoration of sensitivity to doxorubicin (reversal of metal-induced chemoresistance) ([1]; Beas2B cells primed with 1:128 and 1:256 metals, DMPS 150 μM, FIG. 3A): completely restored; Reversal of metal-induced chemoresistance to doxorubicin [2]: reversed the chemoresistance completely; Reversal of metal-induced chemoresistance to doxorubicin [3]: reversed the chemoresistance completely; Metal induced chemoresistance and its reversal by chelator [4]: less pronounced than in native A549 cells; Reversal of metal-induced chemoresistance to doxorubicin [5]: only partially reversed
O=C(O)C(S)C(S)C(=O)O (centres unmarked) [DMSA, 2,3-dimercaptosuccinic acid] | – | – | prevents unfolding | only partially reversed | reversed | reduce survivability | – | –
O=C(O)CN(CCN(CC(=O)O)CC(=O)O)CC(=O)O [EDTA, ethylenediaminetetraacetic acid] | not able to restore chemosensitivity substantially | able to restore chemosensitivity although not to the extent as seen for DMPS; also recorded: reversed the resistance only partially | – | – | – | – | clearly able to refold some of the p53 | –
COc1cccc2c1C(=O)c1c(O)c3c(c(O)c1C2=O)C[C@@](O)(C(=O)CO)C[C@@H]3O[C@H]1C[C@H](N)[C@H](O)[C@H](C)O1 [doxorubicin] | – | – | – | – | – | – | – | IC50 of doxorubicin in metal-loaded cells relative to cells without added metals ([1]; Beas-2B loaded with metals (1:128), FIG. 6): more than 10 times; IC50 of doxorubicin ([1]; Beas-2B without added metals, FIG. 6): low
CC(C)CCOC(=O)[C@@H](S)[C@@H](S)C(=O)O [miaDMSA, monoisoamylDMSA] | – | – | – | highly potent chelator; also recorded: completely reversed | reversed | reduce survivability; also recorded: reduction of resistance | clearly able to refold some of the p53 | Prevention of metal-induced unfolding of p53 [9]: prevented or reduced; Prevention of metal-induced unfolding of p53 [10]: prevented or reduced
